Data taken from PMC4611054, “Quantitative time-resolved analysis reveals intricate, differential regulation of standard- and immuno-proteasomes” (eLife, 2015).
Residues, ends and D or L forms follow the SMILES beside them.

How the values were obtained:
Format in all cases: biochemical
[1] = molecular target: T1, 20S mouse liver proteasome (Mus musculus, UniProt O55234+P70195+Q60692); test: Bz-VGR-MCA hydrolysis with and without peptide; conditions: activator; allosteric non-catalytic modifier site; terminal groups of LLVY not told; pH 7.2, 37 °C
T1 construct: gene Psmb5; native 20S core particle purified from mouse liver; alpha7beta7beta7alpha7; with Proteasome subunit beta type-1; Proteasome subunit beta type-2; Proteasome subunit beta type-3; Proteasome subunit beta type-4; Proteasome subunit alpha type-1; Proteasome subunit alpha type-2; Proteasome subunit alpha type-3; Proteasome subunit alpha type-4; Proteasome subunit alpha type-5; Proteasome subunit alpha type-6; Proteasome subunit alpha type-7

[2] = molecular target: T2, human 20S s-proteasome (T2 proteasome) (Homo sapiens, UniProt P28072+P28074+Q99436); test: fluorogenic peptide hydrolysis time courses, Bayesian fit of compartment model; conditions: TEAD buffer pH 7.2, 37 °C, 20-640 μM substrate, model-inferred active site affinity
T2 construct: gene PSMB5; native 20S core particle purified from T2 cells; alpha7beta7beta7alpha7; with Proteasome subunit beta type-1; Proteasome subunit beta type-2; Proteasome subunit beta type-3; Proteasome subunit beta type-4; Proteasome subunit alpha type-1; Proteasome subunit alpha type-2; Proteasome subunit alpha type-3; Proteasome subunit alpha type-4; Proteasome subunit alpha type-5; Proteasome subunit alpha type-6; Proteasome subunit alpha type-7

[3] = molecular target: T1, 20S mouse liver proteasome; test: fluorogenic peptide hydrolysis, initial velocities, ABC-SMC fit of Michaelis-Menten and substrate-inhibition models; conditions: TEAD buffer pH 7.2, 37 °C, authors state the models fit poorly

Cc1cc(=O)oc2cc(NC(=O)[C@H](Cc3ccc(O)cc3)NC(=O)[C@@H](NC(=O)[C@H](CC(C)C)NC(=O)[C@H](CC(C)C)NC(=O)CCC(=O)O)C(C)C)ccc12 [LLVY peptide] (HELM PEPTIDE1{[O=C(O)CCC(=O)[*:2]].L.L.V.Y.[Cc1cc(=O)oc2cc(N[*:1])ccc12]}$$$$V2.0)
Bz-VGR-MCA hydrolysis with and without peptide [1]: degradation rate of the substrate Bz-VGR-MCA increases in the presence of the peptide LLVY

Cc1cc(=O)oc2cc(NC(=O)[C@H](Cc3ccc(O)cc3)NC(=O)[C@@H](NC(=O)[C@H](CC(C)C)NC(=O)[C@H](CC(C)C)NC(=O)CCC(=O)O)C(C)C)ccc12 [Suc-LLVY-MCA] (HELM PEPTIDE1{[O=C(O)CCC(=O)[*:2]].L.L.V.Y.[Cc1cc(=O)oc2cc(N[*:1])ccc12]}$$$$V2.0)
KaS ([2]; site mainly beta5): we observe a higher active site affinity (KaS) with a lower Hill coefficient (na) | KM ([3]; site mainly beta5/beta5i): Scatterplot of the kinetic parameters vmax and KM from the inferred posterior parameter distributions

Cc1cc(=O)oc2cc(NC(=O)[C@H](CCC(=O)O)NC(=O)[C@H](CC(C)C)NC(=O)[C@H](CC(C)C)NC(=O)OCc3ccccc3)ccc12 [Z-LLE-MCA] (HELM PEPTIDE1{[O=C(OCc1ccccc1)[*:2]].L.L.E.[Cc1cc(=O)oc2cc(N[*:1])ccc12]}$$$$V2.0)
KaS ([2]; site mainly beta1): for i-proteasomes we observe lower affinity to the active site (KaS) | KM ([3]; site mainly beta1/beta1i): The substrates Suc-LLVY-MCA, Bz-VGR-MCA and Z-LLE-MCA were hydrolysed by mouse proteasome
